Data set [1] addresses T1, TsPYK (Thermoanaerobacterium saccharolyticum, UniProt I3VV25).
T1 construct: gene Tsac_1363; full length with extra-C domain; N-terminal 6XHis tag kept (6XHis-MBP-SUMO tag in later expression); expressed in E. coli FF50 / QTF60 (pykA pykF deleted); homotetramer
T1 sequence (I3VV25 1-583): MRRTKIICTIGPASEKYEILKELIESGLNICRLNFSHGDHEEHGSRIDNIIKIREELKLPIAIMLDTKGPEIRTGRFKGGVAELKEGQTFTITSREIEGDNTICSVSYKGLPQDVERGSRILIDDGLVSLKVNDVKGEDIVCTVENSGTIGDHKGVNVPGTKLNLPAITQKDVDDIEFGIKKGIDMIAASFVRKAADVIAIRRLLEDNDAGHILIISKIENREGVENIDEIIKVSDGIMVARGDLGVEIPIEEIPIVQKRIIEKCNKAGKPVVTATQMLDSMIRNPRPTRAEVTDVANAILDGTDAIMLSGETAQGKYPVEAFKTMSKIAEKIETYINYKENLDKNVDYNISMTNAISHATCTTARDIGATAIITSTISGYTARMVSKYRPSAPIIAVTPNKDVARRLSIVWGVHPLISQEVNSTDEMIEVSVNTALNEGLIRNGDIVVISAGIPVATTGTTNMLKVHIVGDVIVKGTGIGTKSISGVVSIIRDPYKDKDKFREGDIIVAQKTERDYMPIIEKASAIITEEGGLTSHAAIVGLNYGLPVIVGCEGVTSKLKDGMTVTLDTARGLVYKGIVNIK
Nature of the data set: Kapp–PEP versus effector concentration, lactate dehydrogenase coupled assay, linkage fit. It is filed as biochemical. As to conditions: Kix in absence of PEP, 10 mM ADP, 15 mM MgCl2, 30 °C. An excerpt: Kapp–PEP versus effector concentration, lactate dehydrogenase coupled assay, linkage fit on TsPYK

The target in data set [2] is T2, C. bescii PYK (Caldicellulosiruptor bescii, UniProt A0ABY1S964).
T2 construct: gene SAMN05216240_1829; full length with extra-C domain; N-terminal 6XHis-MBP-SUMO tag kept; expressed in E. coli QTF60
T2 sequence (A0ABY1S964 entry or part of it): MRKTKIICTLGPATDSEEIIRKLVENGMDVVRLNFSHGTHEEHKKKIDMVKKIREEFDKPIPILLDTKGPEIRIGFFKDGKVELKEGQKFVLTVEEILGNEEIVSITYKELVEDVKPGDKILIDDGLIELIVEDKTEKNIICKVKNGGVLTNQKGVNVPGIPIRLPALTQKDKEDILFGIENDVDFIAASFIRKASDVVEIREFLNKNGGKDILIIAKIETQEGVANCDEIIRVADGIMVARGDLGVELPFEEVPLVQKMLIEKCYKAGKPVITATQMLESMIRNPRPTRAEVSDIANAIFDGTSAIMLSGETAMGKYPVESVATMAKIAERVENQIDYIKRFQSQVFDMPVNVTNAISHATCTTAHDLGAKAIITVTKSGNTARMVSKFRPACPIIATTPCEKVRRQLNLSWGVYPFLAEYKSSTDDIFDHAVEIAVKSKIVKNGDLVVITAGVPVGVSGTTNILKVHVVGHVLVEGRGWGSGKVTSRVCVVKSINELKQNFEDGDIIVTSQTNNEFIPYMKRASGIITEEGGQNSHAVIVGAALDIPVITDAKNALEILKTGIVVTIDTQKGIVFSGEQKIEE
Nature of the data set: lactate dehydrogenase coupled NADH assay, A340, Hill fit. As to conditions: 10 mM ADP, 15 mM MgCl2, 30 °C; no effector. It is filed as biochemical.

Data set [3] addresses T3, E. coli Type F (Escherichia coli, UniProt P0AD61).
T3 construct: gene pykF; full length; no extra-C domain; N-terminal 6XHis-MBP-SUMO tag kept; expressed in E. coli QTF60
The data set is described as above. It is filed as biochemical. The conditions noted are these: 10 mM ADP, 15 mM MgCl2, 30 °C; no effector.

The target in data set [4] is T4, TsPYK extra-C domain truncated (Thermoanaerobacterium saccharolyticum, UniProt I3VV25).
T4 construct: gene Tsac_1363; N-terminal 6XHis-MBP-SUMO tag kept; expressed in E. coli QTF60
The data set is described as above. It is filed as biochemical. As to conditions: 10 mM ADP, 15 mM MgCl2, 30 °C; no effector.

Data set [5] deals with T5, E. coli Type A (Escherichia coli, UniProt P21599).
T5 construct: gene pykA; full length; no extra-C domain; N-terminal 6XHis-MBP-SUMO tag kept; expressed in E. coli QTF60
T5 sequence (P21599 whole entry): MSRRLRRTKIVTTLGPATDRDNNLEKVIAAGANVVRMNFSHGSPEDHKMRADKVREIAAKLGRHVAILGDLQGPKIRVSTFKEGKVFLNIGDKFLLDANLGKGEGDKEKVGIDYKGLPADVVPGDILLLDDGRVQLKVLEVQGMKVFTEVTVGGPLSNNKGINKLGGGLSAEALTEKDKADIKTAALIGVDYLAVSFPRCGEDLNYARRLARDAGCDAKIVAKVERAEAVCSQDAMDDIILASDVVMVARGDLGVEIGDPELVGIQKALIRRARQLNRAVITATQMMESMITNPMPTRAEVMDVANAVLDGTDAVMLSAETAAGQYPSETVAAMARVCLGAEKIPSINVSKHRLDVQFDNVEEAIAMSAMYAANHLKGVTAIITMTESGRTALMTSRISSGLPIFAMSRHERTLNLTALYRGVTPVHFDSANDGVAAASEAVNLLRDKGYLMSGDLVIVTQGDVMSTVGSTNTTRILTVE
The description is as above. It is filed as biochemical. As to conditions: 10 mM ADP, 15 mM MgCl2, 30 °C; no effector.

Data set [6] deals with T1, TsPYK. Nature of the data set: Kapp–PEP versus effector concentration, lactate dehydrogenase coupled assay. The data set is classed as biochemical. As to conditions: 10 mM ADP, 15 mM MgCl2, 30 °C.
In data set [7] the target is T5, E. coli Type A. The description is as above. It is filed as biochemical. As to conditions: allosteric activator; 10 mM ADP, 15 mM MgCl2, 30 °C.
Data set [8] deals with T2, C. bescii PYK. The description is as above. The data set is classed as biochemical. As to conditions: allosteric activator; 10 mM ADP, 15 mM MgCl2, 30 °C.
The target in data set [9] is T4, TsPYK extra-C domain truncated. Described as above. The data set is classed as biochemical. The conditions noted are these: allosteric activator; 10 mM ADP, 15 mM MgCl2, 30 °C.
Substrate in data set [10]: C=C(OP(=O)(O)O)C(=O)O
The data set is described as follows: lactate dehydrogenase coupled NADH assay, A340, Hill fit. As to conditions: 10 mM ADP, 15 mM MgCl2, 195 mM K+, 80 mM Na+, 50 mM HEPES, 30 °C, no effector, ± sign lost in table text. It is filed as biochemical, Thermoanaerobacterium saccharolyticum. An excerpt:
lactate dehydrogenase coupled NADH assay, A340, Hill fit on TsPYK

Read-outs that look alike come from different tables or passages of the source.

T3 sequence (P0AD61 whole entry): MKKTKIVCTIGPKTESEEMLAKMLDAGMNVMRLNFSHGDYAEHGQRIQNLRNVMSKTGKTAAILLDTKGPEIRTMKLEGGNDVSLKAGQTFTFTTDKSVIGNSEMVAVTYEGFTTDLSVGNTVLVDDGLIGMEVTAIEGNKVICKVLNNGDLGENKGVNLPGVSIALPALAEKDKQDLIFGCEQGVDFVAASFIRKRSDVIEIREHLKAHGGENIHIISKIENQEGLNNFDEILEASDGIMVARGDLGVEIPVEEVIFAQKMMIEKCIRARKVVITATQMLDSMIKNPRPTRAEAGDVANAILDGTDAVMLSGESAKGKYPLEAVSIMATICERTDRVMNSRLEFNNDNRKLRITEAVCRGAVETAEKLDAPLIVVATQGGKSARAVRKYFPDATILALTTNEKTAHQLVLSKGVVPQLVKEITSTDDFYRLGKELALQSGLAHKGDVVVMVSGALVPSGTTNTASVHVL

For `Nc1nc2c(ncn2[C@@H]2O[C@H](COP(=O)(O)O)[C@@H](O)[C@H]2O)c(=O)[nH]1` [GMP], the Kd in data set [1] (allosteric inhibitor, ± sign lost in table text (printed 11), read-out: Kix-GMP) came out at 1 ± 1 mM.

For the molecule `O=P(O)(O)OC[C@H]1OC(O)[C@H](O)[C@@H]1O` (some centres unmarked) [R5P], the Kd in data set [1] (allosteric activator, ± sign lost in table text (printed 1110), read-out: Kix-R5P) was found to be 11 ± 10 mM.

Turning to `C=C(OP(=O)(O)O)C(=O)O` [PEP], the Kapp-PEP result in data set [2] was “The response of three bacterial PYK isozymes to AMP and IMP”; in [3] it was “The response of three bacterial PYK isozymes to AMP and IMP”; in data set [4], “A comparison of responses to IMP and AMP for the full length TsPYK”; in [5], “The response of three bacterial PYK isozymes to AMP and IMP”.

As for `Nc1ncnc2c1ncn2[C@H]1C[C@H](O)[C@@H](COP(=O)(O)O)O1` [2-deoxyadenonsine-5′MP], the Kapp-PEP shift entry in data set [6] (allosteric activator) is recorded as “generated a response very similar to AMP (slightly reduced binding)”.

Consider `O=C[C@H](O)COP(=O)(O)O` [glyceraldehyde 3-phosphate], for which the Kapp-PEP shift result in data set [6] (allosteric inhibitor) was “glyceraldehyde 3-phosphate, fructose-6-phosphate, IMP or GMP all caused reduced affinity for PEP”.

As to `O=P(O)(O)OC[C@H]1OC(O)(CO)[C@@H](O)[C@@H]1O` (some centres unmarked) [fructose-6-phosphate], the Kapp-PEP shift entry in [6] (allosteric inhibitor) is “glyceraldehyde 3-phosphate, fructose-6-phosphate, IMP or GMP all caused reduced affinity for PEP”.

For the molecule `Nc1ncnc2c1ncn2[C@@H]1O[C@H](COP(=O)(O)O)[C@@H](O)[C@H]1O` [AMP], the Kapp-PEP shift result in data set [7] was “the E. coli type A isozyme was activated by both AMP and IMP”; in [8], “the isozyme from C. bescii were inhibited by IMP and activated by AMP”; in data set [9], “Activation by AMP was not influenced by the removal of the extra-C domain”. Besides, the Kd in [1] (allosteric activator, ± sign lost in table text, read-out: Kix-AMP) is 0.09 ± 0.06 mM.

B1: TsPYK (Thermoanaerobacterium saccharolyticum JW/SL-YS485) (protein)
chain: T1 sequence (I3VV25 1-583)
notes: full length with extra-C domain; N-terminal 6XHis tag kept (6XHis-MBP-SUMO tag in later expression); expressed in E. coli FF50 / QTF60 (pykA pykF deleted); homotetramer
Consider B1, for which the K0.5 in data set [10] was 0.63 ± 0.03 mM.

(Values after paper PMC7925390 (Frontiers in Microbiology, 2021).)
